Key:
[1] = system: HIV derived RRE RNA; assay: heterologous hybridization inhibition assay with RRE RNA; type: binding; conditions: radiolabeled RRE RNA, rRNA competitor
[2] = system: HBV; assay: antiviral assay in 2.2.15 cells producing HBV (virion DNA dot blot); type: cell-based, Hepatitis B virus; conditions: extra-cellular virus reduced by 50%; 2.2.15 cells, 9 days treatment; read-out: Antiviral EC50
Source text: Several cell lines and cell culture assays have been developed to identify potential therapeutics effective against chronic HBV infection. One of these cell lines, 2.2.15, has been used in a standardized assay that has repeatedly proven to be an accurate model of chronic cellular HBV replication and a predictive model of antiviral response for chronic hepadnaviral infection in vivo. 2.2.15 cells contain copies of the complete HBV genome integrated into the cell's genome, and 2.2.15 cells are not susceptible to infection by HBV. (Sells, M. A. et al., J. Virol. 62 (8): 2836-2844 (1988)). These cells express HBV genes producing complete HBV particles capable of infecting chimpanzees (Acs, G. et al., Proc. Natl. Acad. Sci. USA 84 (13): 4641-4644 (1987)). Briefly, 2.2.15 cells are cultured and pretreated with a test compound for about 9 days, at which point the media are harvested and subjected to dot-blot hybridization to detect HBV virion DNA.
The antiviral activity of the compounds of the present invention is measured by the methods described in Korba and Gering, Antiviral Res. 19: 55-70 (1992).
This assay format is well suited to the screening of test compounds for potential antiviral activity. The assay provides a threshold assessment of antiviral activity by measuring (i) the levels of HBV virion release from the cells and (ii) cytotoxicity. Two rows of cells were used for each compound, and 4 rows for the assay controls (two for untreated, and two for positive antiviral control, e.g., 3TC). After incubating in the presence of test compound for 9 days, the media were harvested, transferred to 96-well U-bottom plates, and centrifuged. The supernatants were transferred to tubes for dot blot hybridization analysis of HBV virion DNA. The medium was aspirated off of the toxicity plates and discarded. Toxicity plates were then incubated with neutral red dye (MTT can also be used if preferred), washed with DPBS, developed with an acetic acid-ethanol solution, and assayed in a plate reader.
1. 2.2.15 cells were seeded into 96-well, flat bottom tissue culture plates as described above. Duplicate plates were used for the antiviral treatments for each test compound (up to 8 compounds per pair of plates); after three to four days, cells were confluent and medium was yellow in color; the medium was removed and replaced with 100 μl RP2 24 hours before the beginning of drug treatment.
i) For each compound, a total of 4 concentrations were examined; this required 9 sets of 4 sterile, 1.1 ml minitubes (36 tubes per compound). Into the first tube of each set, sufficient compound was aliquoted to make up 700 μl (for 10-fold dilution series) or 980 μl (for 3.3-fold dilution series) of the highest test concentration; the other tubes were left empty.
i) For a 10-fold dilution series: to the first (compound containing) tube was added 700 μl (175 μl×4). 630 μl (210 μl×3) RP2 culture medium was added to the remaining 3 tubes. The first tube was mixed by pipeting up and down with a pipetman (a multichannel pipetman permits the simultaneous processing of multiple compounds). 70 μl of test compound-containing medium were serially transferred from the first tube to the other 3 tubes, taking care to thoroughly mix each tube before transferring medium;
b) 100 μl of each dilution of every compound was added to each of 6 wells (3 wells per plate) using the configuration listed below as an example. The lowest concentration was added first, and the same tips were used to add the higher concentrations. The untreated cells received 100 μl RP2 per well (untreated cells have to be carried on only one pair of the antiviral assay plates).
c) Treatments were repeated daily for 9 days. For the last day of treatment, and additional 200 μl RP2 were added to each well of the antiviral assay plates after the wells are treated with the test compounds (a total of 300 μl medium per well).
6. […]

SMILES	IC50 [1] [µM]	EC50 [2] [µM]	RRE + rRNA IC50 (μM) [1]
FC(F)(F)c1cccc(Nc2nc(NN=Cc3ccc(Cl)cc3)nc(N3CCOCC3)n2)c1 [Compound 120]	1110	> 100	–
Fc1cccc(C=NNc2nc(Nc3ccccc3)nc(N3CCCC3)n2)c1 [Compound 201]	–	> 100	inactive
CCN(CC)c1nc(Nc2cccc(Br)c2)nc(Nc2cc(C)ccc2C)n1 [Compound 202]	–	> 100	inactive
CC(C=NNc1nc(Nc2ccc([N+](=O)[O-])cc2)nc(Nc2ccc(C)c(C)c2)n1)=Cc1ccccc1 [Compound 19]	–	> 100	inactive
Cc1ccc(Nc2nc(NN=Cc3ccc(O)cc3O)nc(Nc3ccc([N+](=O)[O-])cc3)n2)cc1C [Compound 9]	–	0.474	inactive
Cc1ccccc1Nc1nc(NN=Cc2ccc3c(c2)OCO3)nc(Nc2ccc([N+](=O)[O-])cc2)n1 [Compound 29]	–	1.1	inactive
Cc1ccc(Nc2nc(NN=Cc3ccccc3)nc(Nc3ccccc3)n2)cc1 [Compound 25]	–	1	inactive
Oc1ccc(Cl)cc1C=NNc1nc(Nc2ccc3ccccc3c2)nc(N2CCOCC2)n1 [Compound 160]	420	0.42	–
Brc1ccc(Nc2nc(NCc3ccccc3)nc(Nc3ccc(Br)cc3)n2)cc1 [Compound 230]	–	> 100	inactive
COc1c(C=NNc2nc(N3CCCC3)nc(N3CCOCC3)n2)cccc1[N+](=O)[O-] [Compound 193]	–	> 100	inactive
Oc1ccccc1C=NNc1nc(Nc2ccccc2)nc(N2CCCCC2)n1 [Compound 169]	–	2.5	inactive
Clc1ccc(C=NNc2nc(Nc3ccccc3)nc(N3CCCC3)n2)cc1 [Compound 218]	57.8	> 100	–
C(=Cc1ccccc1)C=NNc1nc(Nc2ccccc2)nc(Nc2ccccc2)n1 [Compound 125]	1000	3.9	–
COc1cccc(C=NNc2nc(Nc3ccccc3)nc(N3CCCC3)n2)c1O [Compound 170]	740	4	–
CC(=NNc1nc(NCc2ccccc2)nc(Nc2ccccc2)n1)c1ccc([N+](=O)[O-])cc1 [Compound 182]	–	54	inactive
CCCCN(CCCC)c1nc(NN=Cc2cccc(Cl)c2)nc(Nc2ccc([N+](=O)[O-])cc2)n1 [Compound 35]	–	2.3	inactive
Oc1ccc(I)cc1C=NNc1nc(NCc2ccccc2)nc(Nc2ccccc2)n1 [Compound 33]	–	> 100	inactive
COc1ccc(Br)cc1/C=N/Nc1nc(Nc2cccc([N+](=O)[O-])c2)nc(N2CCOCC2)n1 [Compound 28]	–	> 100	inactive

Reference: US6335339B1, “Triazine antiviral compounds” (Scriptgen Pharmaceuticals, Inc., priority 1998, dated 2002)
